pEC50: −log10 of the molar value. Read-outs that look alike come from different tables or passages of the source.
What was measured:
[1] = Non-human primate (NHP) CSF pharmacokinetic properties (Example 6); type: in vivo, Cynomolgus monkeys; details: male, Cynomolgus monkey
Experimental: Protocol PK in NHP was determined following intravenous and oral dosing. For the intravenous (IV) experiments, a group of 4 male Cynomolgus monkeys were used. The IV group was dosed with 0.3 mg/kg of a compound formulated as a solution in 10% PEG-400, 25% of a 20% Solutol HS 15 in Water, and 65% DPBS. IV doses were administered by injection and delivered via catheter into the cephalic vein. For the oral (PO) experiments, a group of 4 male Cynomolgus monkeys were used. The PO group was dosed with 1 mg/kg of a compound formulated as a suspension in 1% HPMC E5, 0.2% Tween 80, 0.5% MC in water. PO doses were administered by oral gavage and delivered via gelatin capsule.
Plasma and CSF samples were collected as follows: samples of CSF and blood were collected at 1, 4 and 24 hours post IV dosing and 2, 8 and 24 hours post PO dosing. CSF samples (0.05 mL) were collected either the cisterna magna (primary site) or the lumbosacral region (L4/5) via direct needle puncture at the appropriate time points. Blood samples (0.25 mL) were collected from a peripheral vein. These samples were kept on ice until processed for plasma. Blood samples were centrifuged at 3200 rpm for 5 minutes at approximately 5° C. within 1 hour of collection. Plasma was directly transferred to a 96-well plate tube (0.125 mL). Plug caps were placed on the tubes and the tubes frozen at approximately −70° C. and stored until analysis. Plasma was collected and analyzed for the presence of a compound.
Quantitation of Compounds. The compound of the invention and the internal standard were extracted from plasma and CSF by precipitation. Samples were analyzed using liquid chromatography (LC) with tandem mass spectrometric detection (MS/MS) using electrospray ionization. The standard curve range was from 1 to 1000 ng/mL. Results of the compounds described herein in this assay are illustrated in Tables 6a and 6b below (0.3 mg/kg IV dose, 1 mg/kg PO dose).
Kp,uu is defined as the concentration ratio of unbound drug in CSF to unbound drug in plasma. Unbound drug in plasma (or free plasma concentration) is calculated by multiplying the total plasma concentration by the unbound fraction as determined by plasma protein binding. The CSF concentration is then divided by the free plasma concentration to determine the Kp,uu. (See e.g., Di et al., J. Med Chem., 56, 2-12 (2013))

[2] = test system: cAMP response element-binding protein (CREB); assay: pCREB phosphorylation in rat primary neurons (Example 12); type: cell-based; details: Primary neuron, 10 μM DETA-NONOate
Excerpt: Objective. To assess the ability of Compound I-1 to activate cAMP response element-binding protein (CREB) in rat primary neurons. CREB is a cellular transcription factor. It binds to DNA sequences called cAMP response elements (CRE), and regulates transcription of the downstream genes (See Bourtchuladze R, et al., Cell 1994; 79 (1): 59-68). […] CREB proteins are activated by phosphorylation of Serine 133 by various kinases, including cAMP-dependent protein kinase or Protein Kinase A (PKA), cGMP-dependent protein kinase or Protein Kinase G (PKG), and Ca2+/calmodulin-dependent protein kinases. (See Shaywitz A J and Greenberg M E, Annual Review of Biochemistry 1999; 68 (1): 821-861 and Wong J C, et al., J Cell Biochem 2012: 113(11):3587-98). Stimulation of CREB could have therapeutic benefits for diseases in which cognition, neuronal plasticity, and or neuronal function is impaired.
Compounds. Compound I-1 was dissolved in DMSO as a 10 mM solution and stored at −20° C. […]
Assay Conditions. […] Medium was removed and cell were lysed and assay was performed according to Cisbio protocol (phospho-CREB (Ser133) catalog #64CREPEG) and the plate was read using Envision instrument (PerkinElmer).
Data Analysis. Data were analyzed with a 4-parameter fit (log(agonist) vs. response—variable slope) using GraphPad Prism Software v.7. […]

Fc1ccccc1Cc1nc(-c2nc(C(F)(F)F)n[nH]2)cn2ccnc12 [Compound I-1, 8-(2-fluorobenzyl)-6-(3-(trifluoromethyl)-1H-1,2,4-triazol-5-yl)imidazo[1,2-a]pyrazine]
Kp uu at 1 h ([1]; CSF / unbound plasma, 0.3 mg/kg IV, @ 1 h): 1.8
Kp uu at 4 h ([1]; CSF / unbound plasma, 0.3 mg/kg IV, @ 4 h): 3
Kp uu at 24 h ([1]; CSF / unbound plasma, 0.3 mg/kg IV): 2.8
Kp uu at 2 h ([1]; CSF / unbound plasma, 1 mg/kg PO, @ 2 h): 1.8
Kp uu at 8 h ([1]; CSF / unbound plasma, 1 mg/kg PO, @ 8 h): 2.5
Kp uu at 24 h ([1]; CSF / unbound plasma, 1 mg/kg PO): 2.1
concentration at 1 h ([1]; CSF, 0.3 mg/kg IV, @ 1 h, read-out: CSF Conc.): 27 nM
concentration at 4 h ([1]; CSF, 0.3 mg/kg IV, @ 4 h, read-out: CSF Conc.): 20 nM
concentration at 24 h ([1]; CSF, 0.3 mg/kg IV, read-out: CSF Conc.): 6 nM
concentration at 2 h ([1]; CSF, 1 mg/kg PO, @ 2 h, read-out: CSF Conc.): 42 nM
concentration at 8 h ([1]; CSF, 1 mg/kg PO, @ 8 h, read-out: CSF Conc.): 31 nM
concentration at 24 h ([1]; CSF, 1 mg/kg PO, read-out: CSF Conc.): 11 nM
pEC50 ([2]; read-out: 95% confidence interval of EC50, phosphorylation of CREB at Ser133): 7.75 to 9.30
pEC50 ([2]; 0.5 h, 30 min, read-out: EC50, phosphorylation of CREB at Ser133): 8.52

Source: patent US11731977B2, “SGC stimulators” (Cyclerion Therapeutics, Inc., priority 2016, dated 2023)
